Assay [1] has as its target N-type calcium channel (Homo sapiens, UniProt Q00975). Nature of the assay: N-channel FLIPR assay (inhibition of K+-evoked calcium flux in differentiated IMR32 cells). Type of assay: cell-based. Conditions: 80 mM K+ stimulus. (Calcium assays in cells follow changes in intracellular calcium, usually with a dye or a luminescent sensor.)
The test system of assay [2] is L-type calcium channel. The assay is described as follows: L-channel FLIPR assay (SK-N-SH cells). Type of assay: cell-based, human. Conditions: L-channel reference on each plate, near IC50; read-out: reference concentration near IC50.
Procedure: An immortalized cell line, SK-N—SH, derived from human neuroblastoma cells (ATCC product # HTB-11) was used for all experiments. Cells were grown in T75 flasks containing Eagle's minimum essential medium (MEM) w/Earle's salts, with 0.1 mM non-essential amino acids, 1.0 mM Na pyruvate and 10% fetal bovine serum (FBS; Cat. # SLM-034-B, Specialty Media). Cells were grown to 100% confluency (by visual microscopic estimation) before sub-culture. Cells were sub-cultured at a ratio of 1:3 by first rinsing with 3 mL PBS, replacing the PBS with PBS containing 0.25% trypsin until the cells detached from the surface. 1 mL of the resulting suspension was then added to a new flask containing 10 mL fresh media. Cells were then incubated (37° C., 5% CO2), and media was exchanged about 3 days after subculturing.
B. Preparation of Cells for Experiments:
Cells used for experiments were at the 100% confluency growth stage. Each flask provided enough cells for three 96-well plates. […]
Maximum signal (L-channel+non-specific): 12 wells received 20 μL buffer addition only (no nitrendipine) in the first solution addition sequence to define the maximal K^+-evoked Ca^2+ increase mediated by L-channels+non-specific (non-L-channel mediated fluorescence increase). The coefficient of variation amongst these wells for the K^+-evoked peak increase in fluorescence units was typically less than 12%. […]

Sequence of N-type calcium channel (Q00975 whole entry): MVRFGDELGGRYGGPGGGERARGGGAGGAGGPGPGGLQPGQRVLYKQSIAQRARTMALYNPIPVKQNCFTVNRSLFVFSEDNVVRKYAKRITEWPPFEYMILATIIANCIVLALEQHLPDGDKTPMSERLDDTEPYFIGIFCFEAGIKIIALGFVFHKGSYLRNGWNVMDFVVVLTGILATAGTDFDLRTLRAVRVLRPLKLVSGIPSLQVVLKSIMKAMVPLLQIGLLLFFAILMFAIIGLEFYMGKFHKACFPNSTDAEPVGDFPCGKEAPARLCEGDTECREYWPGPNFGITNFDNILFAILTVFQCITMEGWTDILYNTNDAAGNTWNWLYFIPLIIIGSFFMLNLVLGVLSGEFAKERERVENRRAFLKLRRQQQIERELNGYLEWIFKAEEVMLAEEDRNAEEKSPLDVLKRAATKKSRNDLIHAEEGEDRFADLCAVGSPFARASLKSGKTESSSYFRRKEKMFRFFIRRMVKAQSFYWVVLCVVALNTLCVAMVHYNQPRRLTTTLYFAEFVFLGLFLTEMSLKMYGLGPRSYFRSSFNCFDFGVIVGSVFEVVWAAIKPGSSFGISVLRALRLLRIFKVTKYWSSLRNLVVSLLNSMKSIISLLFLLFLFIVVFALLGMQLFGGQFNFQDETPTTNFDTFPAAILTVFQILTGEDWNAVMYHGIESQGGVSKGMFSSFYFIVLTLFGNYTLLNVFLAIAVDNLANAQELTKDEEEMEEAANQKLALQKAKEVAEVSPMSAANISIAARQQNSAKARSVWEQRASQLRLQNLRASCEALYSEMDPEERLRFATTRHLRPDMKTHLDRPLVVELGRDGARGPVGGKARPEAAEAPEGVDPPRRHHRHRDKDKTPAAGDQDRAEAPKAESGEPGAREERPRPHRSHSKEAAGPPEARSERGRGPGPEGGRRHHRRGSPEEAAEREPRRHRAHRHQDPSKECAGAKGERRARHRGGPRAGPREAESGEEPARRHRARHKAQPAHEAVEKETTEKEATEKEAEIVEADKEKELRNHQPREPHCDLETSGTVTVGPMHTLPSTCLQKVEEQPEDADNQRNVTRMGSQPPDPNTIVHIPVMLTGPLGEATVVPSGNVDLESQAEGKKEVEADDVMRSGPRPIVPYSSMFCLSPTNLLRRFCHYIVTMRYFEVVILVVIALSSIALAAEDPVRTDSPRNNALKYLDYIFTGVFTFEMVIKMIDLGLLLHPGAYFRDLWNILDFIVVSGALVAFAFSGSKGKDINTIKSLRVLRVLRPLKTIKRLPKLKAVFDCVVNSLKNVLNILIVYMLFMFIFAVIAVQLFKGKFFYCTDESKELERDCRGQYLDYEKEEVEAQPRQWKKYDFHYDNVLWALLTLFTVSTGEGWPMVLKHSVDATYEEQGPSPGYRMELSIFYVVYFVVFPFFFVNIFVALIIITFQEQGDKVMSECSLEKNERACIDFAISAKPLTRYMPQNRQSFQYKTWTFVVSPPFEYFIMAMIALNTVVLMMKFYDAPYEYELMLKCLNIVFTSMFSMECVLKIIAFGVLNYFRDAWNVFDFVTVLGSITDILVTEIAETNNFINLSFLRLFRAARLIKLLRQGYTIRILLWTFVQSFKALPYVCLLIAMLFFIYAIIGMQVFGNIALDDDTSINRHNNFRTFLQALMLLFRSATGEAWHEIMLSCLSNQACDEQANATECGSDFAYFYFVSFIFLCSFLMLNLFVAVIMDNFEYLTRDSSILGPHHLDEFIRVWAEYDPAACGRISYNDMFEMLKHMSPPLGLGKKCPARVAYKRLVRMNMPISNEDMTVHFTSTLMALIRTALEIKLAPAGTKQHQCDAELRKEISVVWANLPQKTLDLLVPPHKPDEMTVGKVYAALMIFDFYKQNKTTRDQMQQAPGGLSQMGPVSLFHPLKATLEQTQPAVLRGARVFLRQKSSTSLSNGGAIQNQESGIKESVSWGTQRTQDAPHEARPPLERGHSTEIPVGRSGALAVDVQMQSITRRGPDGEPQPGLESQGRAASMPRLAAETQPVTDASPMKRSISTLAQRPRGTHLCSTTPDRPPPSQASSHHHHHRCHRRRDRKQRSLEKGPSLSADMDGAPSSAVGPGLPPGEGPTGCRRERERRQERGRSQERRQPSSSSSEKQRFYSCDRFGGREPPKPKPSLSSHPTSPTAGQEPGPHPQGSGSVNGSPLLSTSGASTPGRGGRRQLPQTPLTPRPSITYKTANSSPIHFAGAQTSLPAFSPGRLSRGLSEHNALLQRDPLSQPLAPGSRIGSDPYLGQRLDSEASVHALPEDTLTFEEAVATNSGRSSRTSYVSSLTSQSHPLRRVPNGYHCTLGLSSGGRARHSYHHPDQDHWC
Sequence of N-type calcium channel (P54289 25-1103 partner): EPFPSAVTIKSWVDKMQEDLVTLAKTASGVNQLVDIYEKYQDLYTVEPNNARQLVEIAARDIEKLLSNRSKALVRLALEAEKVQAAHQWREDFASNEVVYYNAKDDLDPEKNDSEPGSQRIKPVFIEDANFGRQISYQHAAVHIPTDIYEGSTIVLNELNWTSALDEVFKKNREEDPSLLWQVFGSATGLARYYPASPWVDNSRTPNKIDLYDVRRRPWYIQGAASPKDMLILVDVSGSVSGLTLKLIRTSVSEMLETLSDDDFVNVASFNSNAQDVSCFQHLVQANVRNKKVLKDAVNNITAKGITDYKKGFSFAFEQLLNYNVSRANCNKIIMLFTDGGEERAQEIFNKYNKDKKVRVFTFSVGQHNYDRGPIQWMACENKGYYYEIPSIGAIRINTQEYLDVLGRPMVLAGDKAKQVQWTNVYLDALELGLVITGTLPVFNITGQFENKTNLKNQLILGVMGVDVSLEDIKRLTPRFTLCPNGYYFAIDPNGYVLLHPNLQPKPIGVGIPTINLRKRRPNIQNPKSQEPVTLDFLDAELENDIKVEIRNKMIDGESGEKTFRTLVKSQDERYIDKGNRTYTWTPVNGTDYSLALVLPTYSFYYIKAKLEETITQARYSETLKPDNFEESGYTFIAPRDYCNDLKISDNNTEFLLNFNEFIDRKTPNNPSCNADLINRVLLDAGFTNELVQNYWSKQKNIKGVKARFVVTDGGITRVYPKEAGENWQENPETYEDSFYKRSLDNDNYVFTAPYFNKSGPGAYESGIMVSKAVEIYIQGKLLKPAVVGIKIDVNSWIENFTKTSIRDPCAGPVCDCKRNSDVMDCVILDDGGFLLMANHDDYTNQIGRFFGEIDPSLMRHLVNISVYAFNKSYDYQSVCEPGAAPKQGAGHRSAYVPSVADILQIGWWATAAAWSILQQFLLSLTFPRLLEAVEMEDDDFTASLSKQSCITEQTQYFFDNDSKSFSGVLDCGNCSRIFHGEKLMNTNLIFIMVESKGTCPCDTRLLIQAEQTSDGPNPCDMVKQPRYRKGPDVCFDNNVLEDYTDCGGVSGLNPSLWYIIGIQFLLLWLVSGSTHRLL
Sequence of N-type calcium channel (P54284 whole entry partner): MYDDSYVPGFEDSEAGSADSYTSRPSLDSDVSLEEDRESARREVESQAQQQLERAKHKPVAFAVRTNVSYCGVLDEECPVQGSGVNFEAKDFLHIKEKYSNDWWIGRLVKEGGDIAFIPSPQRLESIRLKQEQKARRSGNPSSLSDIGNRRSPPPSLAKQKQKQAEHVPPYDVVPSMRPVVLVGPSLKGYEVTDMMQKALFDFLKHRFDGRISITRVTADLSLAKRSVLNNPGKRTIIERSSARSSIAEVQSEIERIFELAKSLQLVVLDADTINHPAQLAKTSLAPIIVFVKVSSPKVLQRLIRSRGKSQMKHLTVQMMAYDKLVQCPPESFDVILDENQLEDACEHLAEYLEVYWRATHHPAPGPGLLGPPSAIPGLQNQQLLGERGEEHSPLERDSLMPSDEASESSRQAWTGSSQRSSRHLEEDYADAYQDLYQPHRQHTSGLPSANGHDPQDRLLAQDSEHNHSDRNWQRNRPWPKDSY

In the case of “2-(3-Fluorophenyl)-N4-morpholin-4-yl-N6-cyclopropyl-quinoline-4,6-diamine [Example 32]”, in assay [1], the IC50 worked out at 6.46 µM.

`Nc1ccc2nc(-c3ccccc3)cc(NCc3ccccc3)c2c1` [Example 4, 2-Phenyl-N4-benzyl-quinoline-4,6-diamine]: in assay [1], the IC50 is 3.54 µM. Same read-out and setting: with `Nc1ccc2nc(-c3ccccc3F)cc(N)c2c1` [Example 16, 2-(2-Fluorophenyl)-quinoline-4,6-diamine] the figure was 81.6 µM; with `CN(C)c1cc(-c2cccc(N3CCOCC3)c2)nc2ccc(NC3CC3)cc12` [Example 55, 2-(3-Morpholin-4-ylphenyl)-N4,N4-dimethyl-N6-cyclopropyl-quinoline-4,6-diamine], 2.31 µM. Take `CNc1ccc2nc(-c3cccc(F)c3)cc(N(C)C)c2c1` [Example 28, 2-(3-Fluorophenyl)-N4,N4,N6-trimethyl-quinoline-4,6-diamine]: the IC50 in assay [1] worked out at 3.81 µM.

Regarding `CN(C)c1cc(-c2cccc(F)c2)nc2ccc(NCC3CC3)cc12` [Example 49, 2-(3-Fluorophenyl)-N4,N4-dimethyl-N6-cyclopropylmethyl-quinoline-4,6-diamine], in assay [1], the IC50 came to 5.88 µM. On to `Nc1ccc2nc(-c3ccccc3Cl)cc(N)c2c1` [Example 15, 2-(2-Chlorophenyl)-quinoline-4,6-diamine], for which the IC50 in assay [1] turned out to be 4.13 µM. On to `CC(C)Nc1ccc2nc(-c3cccc(F)c3)cc(N(C)C)c2c1` [Example 33, 2-(3-Fluorophenyl)-N4,N4-dimethyl-N6-isopropyl-quinoline-4,6-diamine], for which the IC50 in assay [1] worked out at 2.82 µM. Turning to `Nc1ccc2nc(-c3ccc(C4CCCCC4)cc3)cc(N)c2c1` [Example 19, 2-(4-Cyclohexylphenyl)-quinoline-4,6-diamine], in assay [1], the IC50 came to 7.96 µM. As for `CNc1ccc2nc(-c3cccc(F)c3)cc(NC)c2c1` [Example 37, 2-(3-Fluorophenyl)-N4,N6-dimethyl-quinoline-4,6-diamine], the IC50 in assay [1] was 2.18 µM.

Turning to `Cc1c(Nc2ccc3nc(-c4cccc(F)c4)cc(N(C)C)c3c2)c(=O)n(-c2ccccc2)n1C` [Example 44, 2-(3-Fluorophenyl)-N4,N4-dimethyl-N6-4-(1,5-dimethyl-2phenyl-1,2-dihydro-pyrazol-3-one)quinoline-4,6-diamine], the IC50 in assay [1] came out at 5.39 µM.

Consider `CN(C)c1cc(-c2cccc(F)c2)nc2ccc(NC3CCCC3)cc12` [Example 50, 2-(3-Fluorophenyl)-N4,N4-dimethyl-N6-cyclopentyl-quinoline-4,6-diamine], for which, in assay [1], the IC50 came out at 5.9 µM. In the case of `Nc1ccc2nc(-c3cccc(Cl)c3)cc(N)c2c1` [Example 25, 2-(3-Chlorophenyl)-quinoline-4,6-diamine], the IC50 in assay [1] is 4.83 µM. Still for that read-out and setting: with `CCCCCc1cc(N)c2cc(N)ccc2n1` [Example 12, 2-Pentyl-quinoline-4,6-diamine] the figure was 1.89 µM.

Regarding `Nc1ccc2nc(-c3cccc(F)c3)cc(N)c2c1` [Example 10, 2-(3-Fluorophenyl)-quinoline-4,6-diamine], in assay [1], the IC50 is 3.81 µM. For the molecule `COc1ccc(-c2cc(N)c3cc(N)ccc3n2)cc1` [Example 11, 2-(4-Methoxyphenyl)-quinoline-4,6-diamine], in assay [1], the IC50 amounted to 6.91 µM. Take `CCOC(=O)C1=C(C)NC(C)=C(C(=O)OC)C1c1cccc([N+](=O)[O-])c1` (centres unmarked) [nitrendipine]: the IC50 in assay [2] was approximately 0.03 µM.

In the case of `CN(C)c1cc(-c2cccc(Cl)c2)nc2ccc(NC3CC3)cc12` [Example 53, 2-(3-Chlorophenyl)-N4,N4-dimethyl-N6-cyclopropyl-quinoline-4,6-diamine], the IC50 in assay [1] came to 7.19 µM. Regarding `Nc1ccc2nc(-c3cccc(Br)c3)cc(N)c2c1` [Example 21, 2-(3-Bromophenyl)-quinoline-4,6-diamine], the IC50 in assay [1] is 2.54 µM. The same measure, in the same setting: the value for `CN(C)c1cc(-c2cccc(F)c2)nc2ccc(Nc3cccc(N)n3)cc12` [Example 40, 2-(3-Fluorophenyl)-N4,N4-dimethyl-N6-(6-amino-pyridin-2-yl)-quinoline-4,6-diamine] was 2.98 µM; that for `Nc1ccc2nc(COc3ccccc3)cc(N)c2c1` [Example 14, 2-Phenoxymethyl-quinoline-4,6-diamine] was 2.59 µM; that for `COCCNc1cc(-c2cccc(F)c2)nc2ccc(NC3CC3)cc12` [Example 54, 2-(3-Fluorophenyl)-N4-(2-methoxy-ethyl)-N6-cyclopropyl-quinoline-4,6-diamine] was 1.75 µM.

Regarding `CN(C)c1cc(-c2cccc(N3CCOCC3)c2)nc2ccc(N)cc12` [Example 56, 2-(3-Morpholin-4-ylphenyl)-N4,N4-dimethyl-quinoline-4,6-diamine], in assay [1], the IC50 worked out at 6.38 µM. As to `CNc1ccc2nc(-c3cccc(F)c3)cc(N)c2c1` [Example 24, 2-(3-Fluorophenyl)-N6-methyl-quinoline-4,6-diamine], the IC50 in assay [1] was 2.68 µM. Consider `CNc1ccc2nc(-c3ccccc3F)cc(N)c2c1` [Example 23, 2-(2-Fluorophenyl)-N6-methyl-quinoline-4,6-diamine], for which the IC50 in assay [1] was 3.51 µM. With `Nc1ccc2nc(-c3ccccc3)cc(N)c2c1` [Example 3, 2-Phenyl-quinoline-4,6-diamine], in assay [1], the IC50 is 17.2 µM. On to `CNc1cc(-c2cccc(F)c2)nc2ccc(N)cc12` [Example 39, 2-(3-Fluorophenyl)-N4-methyl-quinoline-4,6-diamine], for which the IC50 in assay [1] came out at 4.53 µM. For `CN(C)c1cc(-c2ccccc2)nc2ccc(N)cc12` [Example 6, 2-Phenyl-N4,N4-dimethyl-quinoline-4,6-diamine], in assay [1], the IC50 stood at 6.11 µM. For `Nc1ccc2nc(-c3ccc(Cl)cc3)cc(N)c2c1` [Example 1, 2-(4-Chlorophenyl)-quinoline-4,6-diamine], in assay [1], the IC50 is 36.3 µM.

Regarding `CCCNc1cc(-c2ccccc2)nc2ccc(N)cc12` [Example 7, 2-Phenyl-N4-propyl-quinoline-4,6-diamine], the IC50 in assay [1] stood at 1.99 µM. For `COc1cccc(-c2cc(N)c3cc(N)ccc3n2)c1` [Example 9, 2-(3-Methoxyphenyl)-quinoline-4,6-diamine], in assay [1], the IC50 came out at 2.71 µM. `C=CCNc1ccc2nc(-c3cccc(F)c3)cc(N(C)C)c2c1` [Example 51, 2-(3-Fluorophenyl)-N4,N4-dimethyl-N6-allyl-quinoline-4,6-diamine]: the IC50 in assay [1] turned out to be 3.78 µM.

In the case of `CN(C)c1ccc2nc(-c3cccc(F)c3)cc(N(C)C)c2c1` [Example 26, 2-(3-Fluorophenyl)-N4,N4,N6,N6-tetramethyl-quinoline-4,6-diamine], the IC50 in assay [1] is 4.9 µM. Regarding `CN(C)c1cc(-c2cccc(F)c2)nc2ccc(NC3CC3)cc12` [Example 29, 2-(3 -Fluorophenyl)-N4,N4-dimethyl-N6-cyclopropyl-quinoline-4,6-diamine], the IC50 in assay [1] was 5.44 µM.

With `COc1ccccc1-c1cc(N)c2cc(N)ccc2n1` [Example 13, 2-(2-Methoxyphenyl)-quinoline-4,6-diamine], the IC50 in assay [1] turned out to be 10.5 µM. As to `Nc1ccc2nc(-c3cccc(C(F)(F)F)c3)cc(N)c2c1` [Example 5, 2-(3-Trifluoromethylphenyl)-quinoline-4,6-diamine], in assay [1], the IC50 came to 5.83 µM.

Turning to `CN(C)c1cc(-c2cccc(F)c2)nc2ccc(N3CCCC3)cc12` [Example 38, 2-(3-Fluorophenyl)-N4,N4-dimethyl-6-pyrrolidin-1-yl-quinolin-4-amine], the IC50 in assay [1] came out at 9.15 µM. `Nc1ccc2nc(-c3ccc(Br)cc3)cc(N)c2c1` [Example 20, 2-(4-Bromophenyl)-quinoline-4,6-diamine]: the IC50 in assay [1] was 3.18 µM. On to `CNc1cc(-c2cccc(F)c2)nc2ccc(NC3CC3)cc12` [Example 41, 2-(3-Fluorophenyl)-N4-methyl-N6-cyclopropyl-quinoline-4,6-diamine], for which, in assay [1], the IC50 was 1.8 µM. For `CN(C)c1cc(-c2cccc(F)c2)nc2ccc(NC3CCC3)cc12` [Example 48, 2-(3-Fluorophenyl)-N4,N4-dimethyl-N6-cyclobutyl-quinoline-4,6-diamine], the IC50 in assay [1] came out at 7.74 µM. The same measure, in the same setting: the value for `CN(C)c1cc(-c2cccc(F)c2)nc2ccc(N)cc12` [Example 27, 2-(3-Fluorophenyl)-N4,N4-dimethyl-quinoline-4,6-diamine] was 5.55 µM.

The values are drawn from US7189714B2, “N-type calcium channel antagonists for the treatment of pain” (Astrazeneca AB, priority 2000, dated 2007).
